In US20240043435A1, “TYK-2 INHIBITOR” (BEIGENE, LTD., priority 2020, published 2024):

Molecular target: T1, TYK2-JH2 (aa 575-869, in-house) protein (Homo sapiens, UniProt P29597)
T1 construct: TYK2-JH2 (aa 575-869, in-house) protein; made in house
Test: TYK2-JH2 biochemical assay (HTRF probe displacement)
Type: binding
Settings: Biochemical assay; read-out: TYK2-JH2 IC50
Protocol: Assay A: TYK2-JH2 Biochemical Assay
Compounds disclosed herein were tested for blocking of TYK2-JH2 (aa 575-869, in-house) protein with its probe in an assay based on Homogeneous Time Resolved Fluorescence. Compound dilution is done according to the following protocol: (1) Prepare 500× compounds solution in DMSO from 500 uM by 5-fold dilution, total 10 doses were included; (2) Prepare 10× compounds solution in an assay buffer containing 20 mM HEPES, pH 7.5, 10 mM MgCl2, 0.005% BSA, 2 mM DTT, 0.015% Brij-35 by transferring 1 μl serial 500× stock solution into 49 μl assay buffer. […] of 0.2 nM recombinant TYK2-JH2 protein was pre-incubated with 1 μl of 10× serial dilution of compounds at room temperature for 0.5 hour. […] The HTRF signals (ex337 nm, em620 nm/665 nm) were read on BMG PHERAstar FS instrument. The inhibition percentage of TYK2 interaction with its probe in presence of increasing concentrations of compounds was calculated based on the ratio of fluorescence at 615 nm to that at 665 nm. The IC50 for each compound was derived from fitting the data to the four-parameter logistic equation by Dotmatics.

T1 sequence (P29597 575-869): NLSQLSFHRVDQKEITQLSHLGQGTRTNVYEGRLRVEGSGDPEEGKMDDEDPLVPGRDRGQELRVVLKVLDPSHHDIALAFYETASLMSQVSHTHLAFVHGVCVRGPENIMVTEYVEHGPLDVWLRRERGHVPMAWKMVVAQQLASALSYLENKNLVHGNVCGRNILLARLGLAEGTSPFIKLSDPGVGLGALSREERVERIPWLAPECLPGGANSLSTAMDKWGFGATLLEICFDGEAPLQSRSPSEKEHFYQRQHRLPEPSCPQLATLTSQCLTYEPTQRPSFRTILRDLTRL

Row | Compound | IC50 [nM]
1 | CC(=O)Nc1cc(Nc2cc(OCC3COCCO3)cc(S(C)(=O)=O)n2)c(-c2ccc3c(n2)OC(C)(C)CO3)cn1 (stereo not shown) [Example Q27, N-(4-((4-((1,4-dioxan-2-yl)methoxy)-6-(methylsulfonyl)pyridin-2-yl)amino)-5-(3,3-dimethyl-2,3-dihydro-[1,4]dioxino[2,3-b]pyridin-6-yl)pyridin-2-yl)acetamide] | 0.033
2 | CC(=O)Nc1cc(Nc2cc(-c3c(C)noc3C)cc(S(C)(=O)=O)n2)c(-c2ccc3c(n2)OCC(C)(C)O3)cn1 [Example Q99, N-(5-(2,2-dimethyl-2,3-dihydro-[1,4]dioxino[2,3-b]pyridin-6-yl)-4-((4-(3,5-dimethylisoxazol-4-yl)-6-(methylsulfonyl)pyridin-2-yl)amino)pyridin-2-yl)acetamide] | 0.033
3 | CC(=O)Nc1cc(Nc2cc(C(F)(F)F)cc(S(C)(=O)=O)c2)c(-c2ccc(F)cn2)cn1 [Example F13, N-(5-fluoro-4′-((3-(methylsulfonyl)-5-(trifluoromethyl)phenyl)amino)-[2,3′-bipyridin]-6′-yl)acetamide] | 0.21
4 | CC(=O)Nc1cc(Nc2cccc(S(C)(=O)=O)c2)c(-c2ccc(N3CCOCC3)cn2)cn1 [Example B11, N-(4′-((3-(methylsulfonyl)phenyl)amino)-5-morpholino-[2,3′-bipyridin]-6′-yl)acetamide] | 0.019
5 | CC(=O)Nc1cc(Nc2cc(C(F)(F)F)cc(S(C)(=O)=O)c2)c(-c2ccn([C@@H]3CCOC3)n2)cn1 [Example M32, (R)-N-(4-((3-(methylsulfonyl)-5-(trifluoromethyl)phenyl)amino)-5-(1-(tetrahydrofuran-3-yl)-1H-pyrazol-3-yl)pyridin-2-yl)acetamide] | 0.074
6 | CC(=O)Nc1cc(Nc2cc(C)c(F)c(S(C)(=O)=O)n2)c(-c2ccc3c(n2)OC(C)(C)CO3)cn1 [Example Q30, N-(5-(3,3-dimethyl-2,3-dihydro-[1,4]dioxino[2,3-b]pyridine-6-yl)-4-((5-fluoro-4-methyl-6-(methylsulfonyl)pyridine-2-yl)amino)pyridine-2-yl)acetamide] | 0.065
7 | COCCOc1cc(Nc2cc(NC(C)=O)ncc2-c2ccc(F)cn2)nc(S(C)(=O)=O)c1 [Example F16, N-(5-fluoro-4′-((4-(2-methoxyethoxy)-6-(methylsulfonyl)pyridin-2-yl)amino)-[2,3′-bipyridin]-6′-yl)acetamide] | 0.027
8 | CC(=O)Nc1cc(Nc2cc(C(F)(F)F)cc(S(C)(=O)=O)c2)c(-c2ccn(C)n2)cn1 [Example J33, N-(5-(1-methyl-1H-pyrazol-3-yl)-4-((3-(methylsulfonyl)-5-(trifluoromethyl)phenyl)amino)pyridin-2-yl)acetamide] | 0.12
9 | CC(=O)Nc1cc(Nc2cc(OCCO)cc(S(C)(=O)=O)c2)c(-c2ccc(C(F)(F)F)cn2)cn1 [Example F7, N-(4′-((3-(2-hydroxyethoxy)-5-(methylsulfonyl)phenyl)amino)-5-(trifluoromethyl)-[2,3′-bipyridin]-6′-yl)acetamide] | 0.085
10 | COCCOc1cc(Nc2cc(NC(C)=O)ncc2-c2ccc(C(F)(F)F)cn2)cc(S(C)(=O)=O)c1 [Example F8, N-(4′-((3-(2-methoxyethoxy)-5-(methylsulfonyl)phenyl)amino)-5-(trifluoromethyl)-[2,3′-bipyridin]-6′-yl)acetamide] | 0.087
11 | CC(=O)Nc1cc(Nc2cc(C3CCOCC3)cc(S(C)(=O)=O)n2)c(-c2ccc3c(n2)OCC(C)(C)O3)nn1 [Example Q58, N-(6-(2,2-dimethyl-2,3-dihydro-[1,4]dioxino[2,3-b]pyridin-6-yl)-5-((6-(methylsulfonyl)-4-(tetrahydro-2H-pyran-4-yl)pyridin-2-yl)amino)pyridazin-3-yl)acetamide] | 0.097
12 | CC(=O)Nc1cc(Nc2cc(OC(C)C)cc(S(C)(=O)=O)n2)c(-n2ccnc2)cn1 [Example A18, N-(5-(1H-imidazol-1-yl)-4-((4-isopropoxy-6-(methylsulfonyl)pyridin-2-yl)amino)pyridin-2-yl)acetamide] | 8.15
13 | CCn1ccc(-c2cnc(NC(C)=O)cc2Nc2cc(C(F)(F)F)cc(S(C)(=O)=O)c2)n1 [Example M13, N-(5-(1-ethyl-1H-pyrazol-3-yl)-4-((3-(methylsulfonyl)-5-(trifluoromethyl)phenyl)amino)pyridin-2-yl)acetamide] | 0.11
14 | CC(=O)Nc1cc(Nc2cccc(S(C)(=O)=O)n2)c(-c2cnn(C)c2)cn1 [Example A8, N-(5-(1-methyl-1H-pyrazol-4-yl)-4-((6-(methylsulfonyl)pyridin-2-yl)amino)pyridin-2-yl)acetamide] | 0.26
15 | CC(=O)Nc1cc(Nc2ccc(C3CCOCC3)c(S(C)(=O)=O)n2)c(-c2ccc3c(n2)OCC(C)(C)O3)cn1 [Example Q79, N-(5-(2,2-dimethyl-2,3-dihydro-[1,4]dioxino[2,3-b]pyridin-6-yl)-4-((6-(methylsulfonyl)-5-(tetrahydro-2H-pyran-4-yl)pyridin-2-yl)amino)pyridin-2-yl)acetamide] | 0.32
16 | CC(=O)Nc1cc(Nc2cc(N3CCCC3)cc(S(C)(=O)=O)n2)c(-c2ccc3c(n2)OCC(C)(C)O3)cn1 [Example Q104, N-(5-(2,2-dimethyl-2,3-dihydro-[1,4]dioxino[2,3-b]pyridin-6-yl)-4-((6-(methylsulfonyl)-4-(pyrrolidin-1-yl)pyridin-2-yl)amino)pyridin-2-yl)acetamide] | 0.029
17 | CC(=O)Nc1cc(Nc2cc(O[C@H]3C[C@H](O)C3)cc(S(C)(=O)=O)c2)c(-c2ccc(F)cn2)cn1 [Example F15, N-(5-fluoro-4′-((3-((trans)-3-hydroxycyclobutoxy)-5-(methylsulfonyl)phenyl)amino)-[2,3′-bipyridin]-6′-yl)acetamide] | 0.073
18 | CC(=O)Nc1cc(Nc2cc(C)cc(S(C)(=O)=O)c2)c(-c2ccc(C(F)(F)F)cn2)cn1 [Example F3, N-(4′-((3-methyl-5-(methylsulfonyl)phenyl)amino)-5-(trifluoromethyl)-[2,3′-bipyridin]-6′-yl)acetamide] | 0.068
19 | CC(=O)Nc1cc(Nc2cc(C#N)cc(S(C)(=O)=O)c2)c(-c2ccc(C(F)(F)F)cn2)cn1 [Example F4, N-(4′-((3-cyano-5-(methylsulfonyl)phenyl)amino)-5-(trifluoromethyl)-[2,3′-bipyridin]-6′-yl)acetamide] | 0.324
20 | CC(=O)Nc1cc(Nc2cc(OCC3CC3)cc(S(C)(=O)=O)c2)c(-c2ccc(C(F)(F)F)cn2)cn1 [Example F6, N-(4′-((3-(cyclopropylmethoxy)-5-(methylsulfonyl)phenyl)amino)-5-(trifluoromethyl)-[2,3′-bipyridin]-6′-yl)acetamide] | 0.532
21 | CCn1ccc(-c2cnc(NC(C)=O)cc2Nc2cc(C#N)cc(S(C)(=O)=O)c2)n1 [Example M10, N-(4-((3-cyano-5-(methylsulfonyl)phenyl)amino)-5-(1-ethyl-1H-pyrazol-3-yl)pyridin-2-yl)acetamide] | 0.099
22 | COC(C)c1cc(Nc2cc(NC(C)=O)ncc2-c2ccc(N3C[C@@H](C)O[C@@H](C)C3)cn2)nc(S(C)(=O)=O)c1 (single isomer, unassigned) [Example C19, N-(5-((cis)-2,6-dimethylmorpholino)-4′-((4-((R or S)-1-methoxyethyl)-6-(methylsulfonyl)pyridin-2-yl)amino)-[2,3′-bipyridin]-6′-yl)acetamide] | 0.023
